In patent publication US8895562B2, “Piperazin-1-yl-trifluoromethyl-substituted-pyridines as fast dissociating dopamine 2 receptor antagonists” (Janssen Pharmaceutica NV, priority 2008, dated 2014):
Where a name gives a salt, the structure may show the parent alone. Read-outs that look alike come from different tables or passages of the source.

Legend:
[1] = biological target: T1, human Dopamine D3 receptor (Homo sapiens, UniProt P35462); assay: In vitro binding affinity for human D3 receptor ([125I]iodosulpride)
T1 construct: expressed in transfected cells; host or cells: CHO cells (membranes)
Procedure: Frozen membranes of human Dopamine D3 receptor-transfected CHO cells were thawed, briefly homogenized using an Ultra-Turrax T25 homogeniser and diluted in 50 mM Tris-HCl assay buffer containing 120 mM NaCl, 2 mM CaCl2, 1 mM MgCl2, 5 mM KCl and 0.1% BSA (adjusted to pH 7.4 with HCl) to an appropriate protein concentration optimized for specific and non-specific binding. Radioligand [^125I]Iodosulpride (Amersham, specific activity ˜2000 Ci/mmol) was diluted in assay buffer at a concentration of 2 nM. Prepared radioligand (20 μl), along with 40 μl of either the 10% DMSO control, Risperidone (10^−6M final concentration), or compound of interest, was then incubated with 70 μl of the prepared membrane solution and 70 μl of WGA coated PVT beads (0.25 mg/well final concentration). After shaking for 24 hours at RT plates were counted in a Topcount™ scintillation counter. Percentage specific binding and competition binding curves were calculated using S-Plus software (Insightful).

[2] = biological target: T2, human D2L receptor (Homo sapiens, UniProt P14416); assay: Fast dissociation, indirect assay ([3H]spiperone binding after pre-incubation with compound); conditions: compound at 4 times its IC50, 1 h pre-incubation at 25° C., then 5 min with 1 nM [3H]spiperone on filter
T2 construct: expressed in transfected cells
Procedure: Compounds were first screened for their D2 affinity in a binding assay using [^3H]spiperone and human D2L receptor cell membranes.
Compounds at a concentration of 4 times their IC50 were first incubated for one hour with human D2L receptor cell membranes in a volume of 2 ml at 25° C., then filtered over glass-fibre filter under suction using a 40 well multividor. Immediately after, the vacuum was released. 0.4 ml of pre-warmed buffer (25° C.) containing 1 nM [^3H]spiperone was added on the filter for 5 minutes. The incubation was stopped by initiating the vacuum and immediate rinsing with 2×5 ml of ice-cold buffer. The filter-bound radioactivity was measured in a liquid scintillation spectrometer. The principle of the assay is based on the assumption that the faster a compound dissociates from the D2 receptor, the faster [^3H]spiperone binds to the D2 receptor.

[3] = biological target: T3, human Dopamine D2L receptor (Homo sapiens, UniProt P14416); assay: In vitro binding affinity for human D2L receptor ([3H]spiperone); conditions: membranes of human D2L receptor-transfected CHO cells, read-out: D2L binding pIC50 (converted)
T3 construct: expressed in transfected cells; host or cells: CHO cells (membranes)
Source text: In order to find antipsychotic compounds active against positive and negative symptoms and cognitive impairment, and having an improved safety profile (low EPS incidence and no metabolic disorders), we have screened for compounds selectively interacting with the dopamine D2 receptor and dissociating fast from this receptor, and further having affinity for the dopamine D3 receptor as well as the serotonin 5-HT-6 receptor. Compounds were first screened for their D2 affinity in a binding assay using [^3H]spiperone and human D2L receptor cell membranes.
Frozen membranes of human Dopamine D2L receptor-transfected CHO cells were thawed, briefly homogenised using an Ultra-Turrax T25 homogeniser and diluted in Tris-HCl assay buffer containing NaCl, CaCl2, MgCl2, KCl (50, 120, 2, 1, and 5 mM respectively, adjusted to pH 7.7 with HCl) to an appropriate protein concentration optimised for specific and non-specific binding. Radioligand [^3H]Spiperone (NEN, specific activity ˜70 Ci/mmol) was diluted in assay buffer at a concentration of 2 nmol/L. Prepared radioligand (50 μl), along with 50 μl of either the 10% DMSO control, Butaclamol (10^−6 mol/l final concentration), or compound of interest, was then incubated (30 min, 37° C.) with 400 μl of the prepared membrane solution. Membrane-bound activity was filtered through a Packard Filtermate harvester onto GF/B Unifilterplates and washed with ice-cold Tris-HCl buffer (50 mM; pH 7.7; 6×0.5 ml). Filters were allowed to dry before adding scintillation fluid and counting in a Topcount scintillation counter. Percentage specific bound and competition binding curves were calculated using S-Plus software (Insightful).

[4] = biological target: T4, human Serotonin 5HT6 receptor (Homo sapiens, UniProt P50406); assay: In vitro binding affinity for human 5HT6 receptor ([3H]LSD)
T4 construct: expressed in transfected cells; host or cells: HEK cells (membranes)
Procedure: Frozen membranes of human Serotonin 5HT6 receptor-transfected HEK cells were thawed, briefly homogenized using an Ultra-Turrax T25 homogeniser and diluted in 50 mM Tris-HCl assay buffer containing 10 mM MgCl2, 1 mM EDTA and 10 μM Pargyline (adjusted to pH 7.4 with HCl) to an appropriate protein concentration optimized for specific and non-specific binding. Radioligand [^3H]Lysergic acid diethylamide (Perkin Elmer, specific activity ˜80 Ci/mmol) was diluted in assay buffer at a concentration of 20 nM. Radioligand (20 μl), along with 40 μl of either the 10% DMSO control, Methiothepine (10^−5M final concentration), or compound of interest, was then incubated with 70 μl of the prepared membrane solution and 70 μl of WGA coated PVT beads (0.25 mg/well final concentration). After shaking for 24 hours at RT plates were counted in a Topcount™ scintillation counter. Percentage specific binding and competition binding curves were calculated using S-Plus software (Insightful).

[5] = membranes of human D3 receptor-transfected CHO cells, [125I]iodosulpride, read-out: D3 binding pIC50 (converted)
[6] = membranes of human 5HT6 receptor-transfected HEK cells, [3H]lysergic acid diethylamide, read-out: 5-HT6 binding pIC50 (converted)

T2 sequence (P14416 whole entry): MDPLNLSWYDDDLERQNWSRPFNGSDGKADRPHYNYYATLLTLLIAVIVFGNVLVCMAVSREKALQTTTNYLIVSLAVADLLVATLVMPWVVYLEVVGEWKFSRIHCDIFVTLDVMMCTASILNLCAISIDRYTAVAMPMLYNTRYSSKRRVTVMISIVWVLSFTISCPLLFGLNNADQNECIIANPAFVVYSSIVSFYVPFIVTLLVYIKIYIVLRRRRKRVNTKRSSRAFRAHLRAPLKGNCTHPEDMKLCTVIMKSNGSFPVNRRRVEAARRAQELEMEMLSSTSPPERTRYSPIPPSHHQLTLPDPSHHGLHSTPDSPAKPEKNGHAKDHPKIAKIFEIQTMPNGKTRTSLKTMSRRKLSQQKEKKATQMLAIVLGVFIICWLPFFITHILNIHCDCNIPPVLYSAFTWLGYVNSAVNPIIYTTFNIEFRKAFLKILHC
T3 sequence (P14416 whole entry): as above
T4 sequence (P50406 whole entry): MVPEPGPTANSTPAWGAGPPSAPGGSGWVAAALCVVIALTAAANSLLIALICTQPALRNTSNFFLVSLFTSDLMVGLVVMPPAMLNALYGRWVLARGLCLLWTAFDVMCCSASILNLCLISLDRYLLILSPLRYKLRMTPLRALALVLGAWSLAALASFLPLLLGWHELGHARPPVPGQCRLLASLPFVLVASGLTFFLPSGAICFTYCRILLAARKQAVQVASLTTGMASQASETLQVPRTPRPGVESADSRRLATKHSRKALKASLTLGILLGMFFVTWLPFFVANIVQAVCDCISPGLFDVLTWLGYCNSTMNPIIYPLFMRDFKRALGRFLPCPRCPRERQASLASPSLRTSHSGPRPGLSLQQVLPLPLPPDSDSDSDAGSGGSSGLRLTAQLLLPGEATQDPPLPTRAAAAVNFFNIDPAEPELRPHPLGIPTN
T1 sequence (P35462 whole entry): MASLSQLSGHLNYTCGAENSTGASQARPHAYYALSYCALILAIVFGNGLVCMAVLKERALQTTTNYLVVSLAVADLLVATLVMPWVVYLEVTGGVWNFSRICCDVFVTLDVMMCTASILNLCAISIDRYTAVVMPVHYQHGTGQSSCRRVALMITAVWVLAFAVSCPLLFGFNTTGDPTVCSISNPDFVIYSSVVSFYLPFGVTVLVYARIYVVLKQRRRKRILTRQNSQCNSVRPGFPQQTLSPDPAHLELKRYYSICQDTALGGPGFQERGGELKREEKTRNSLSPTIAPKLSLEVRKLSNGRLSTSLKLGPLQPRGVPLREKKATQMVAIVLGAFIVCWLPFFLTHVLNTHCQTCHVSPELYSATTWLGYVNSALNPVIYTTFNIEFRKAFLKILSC

| SMILES | melting point [°C] | IC50 [1, 5] [nM] | D2 dissociation ([3H]spiperone binding as % of total binding capacity) [2] [%] | IC50 [3] [nM] | IC50 [4, 6] [nM] | IC50 [1] [nM] | IC50 [4] [nM] |
| --- | --- | --- | --- | --- | --- | --- | --- |
| N#Cc1nc(N2CCNCC2)cc(-c2ccccc2)c1C(F)(F)F (as salt: salt) [Example B2, 4-Phenyl-6-piperazin-1-yl-3-trifluoromethyl-pyridine-2-carbonitrile] | 255.3 |  |  |  |  |  |  |
| COc1nc(C(F)(F)F)c(-c2ccccc2)cc1N1CCNCC1 (as salt: salt) [Example B5, 1-(2-Methoxy-5-phenyl-6-trifluoromethyl-pyridin-3-yl)-piperazine] | 184.8 |  |  |  |  |  |  |
| COc1nc(C(F)(F)F)c(-c2ccc(F)cc2)cc1N1CCN(C(=O)OC(C)(C)C)CC1 [Example A16, 4-[5-(4-Fluoro-phenyl)-2-methoxy-6-trifluoromethyl-pyridin-3-yl]-piperazine-1-carboxylic acid tert-butyl ester] |  | 2090 | 83 | 7940 | 224 |  |  |
| Fc1ccc(-c2cc(N3CCNCC3)ncc2C(F)(F)F)cc1 [Example B1, 1-[4-(4-Fluoro-phenyl)-5-trifluoromethyl-pyridin-2-yl]-piperazine] | 80.6 |  |  | 3890 | 123 |  |  |
| N#Cc1nc(N2CCNCC2)cc(-c2ccccc2)c1C(F)(F)F [Example B2, 4-Phenyl-6-piperazin-1-yl-3-trifluoromethyl-pyridine-2-carbonitrile] |  | 10.7 | 60 | 129 | 8.13 |  |  |
| COc1nc(N2CCNCC2)cc(-c2ccccc2)c1C(F)(F)F [Example B3, 1-(6-Methoxy-4-phenyl-5-trifluoromethyl-pyridin-2-yl)-piperazine] |  |  | 45 | 229 |  | 46.8 | 18.6 |
| FC(F)(F)c1ncc(N2CCNCC2)cc1-c1ccccc1 [Example B4, 1-(5-Phenyl-6-trifluoromethyl-pyridin-3-yl)-piperazine] |  |  | 69 | 479 | 138 | 33.9 |  |
| COc1nc(C(F)(F)F)c(-c2ccccc2)cc1N1CCNCC1 [Example B5, 1-(2-Methoxy-5-phenyl-6-trifluoromethyl-pyridin-3-yl)-piperazine] |  |  | 66 | 204 | 93.3 |  |  |
| COc1nc(C(F)(F)F)c(-c2ccc(F)cc2)cc1N1CCNCC1 [Example B6, 1-[5-(4-Fluoro-phenyl)-2-methoxy-6-trifluoromethyl-pyridin-3-yl]-piperazine] |  |  |  | 468 | 129 |  |  |
| N#Cc1nc(C(F)(F)F)c(-c2ccccc2)cc1N1CCNCC1 [Example B7, 5-Phenyl-3-piperazin-1-yl-6-trifluoromethyl-pyridine-2-carbonitrile] |  | 372 |  | 3390 | 309 |  |  |
| Cc1nc(C(F)(F)F)c(-c2ccccc2)cc1N1CCNCC1 [Example B8, 1-(2-Methyl-5-phenyl-6-trifluoromethyl-pyridin-3-yl)-piperazine] |  | 2090 | 95 | 4790 | 170 |  |  |
